Data as given in ChEMBL document CHEMBL4396913, “Synthesis and biological evaluation of hybrid quinolone-based quaternary ammonium antibacterial agents” (Eur J Med Chem, 2019).
Values after ≈ are worked out from the molar mass of the structure shown.

Key:
Bacillus spizizenii [1] = experiment: Antibacterial activity against Bacillus subtilis ATCC 6633 cultured in MH medium assessed as reduction in bacterial growth incubated for 48 hrs by microbroth dilution method; type: functional; details: ATCC 6633, 48 h
Enterococcus hirae [2] = experiment: Antibacterial activity against Enterococcus hirae ATCC 1052 cultured in BHI medium assessed as reduction in bacterial growth incubated for 48 hrs by microbroth dilution method; type: functional; details: ATCC 1052, 48 h
[3] = test system: Staphylococcus epidermidis; experiment: Antibacterial activity against methicillin resistant Staphylococcus epidermidis ATCC 13199 cultured in MH medium assessed as reduction in bacterial growth incubated for 48 hrs by microbroth dilution method; type: functional; details: ATCC 13199, 48 h
Enterococcus hirae [4] = experiment: Bactericidal activity against Enterococcus hirae ATCC 1052 cultured in BHI medium assessed as reduction in bacterial survival incubated for 48 hrs by microbroth dilution method; type: functional; details: ATCC 1052, 48 h
Bacillus spizizenii [5] = experiment: Bactericidal activity against Bacillus subtilis ATCC 6633 cultured in MH medium assessed as reduction in bacterial survival incubated for 48 hrs by microbroth dilution method; type: functional; details: ATCC 6633, 48 h
Serratia marcescens [6] = experiment: Bactericidal activity against Serratia marcescens ATCC 12795 cultured in MH medium assessed as reduction in bacterial survival incubated for 48 hrs by microbroth dilution method; type: functional; details: ATCC 12795, 48 h
Proteus vulgaris [7] = experiment: Bactericidal activity against Proteus vulgaris NCTC 4635 cultured in MH medium assessed as reduction in bacterial survival incubated for 48 hrs by microbroth dilution method; type: functional; details: NCTC 4635, 48 h
[8] = Lipophilicity, log k of the compound at 100 ug/ml by micellar electrokinetic chromatography; type: physicochemical
Staphylococcus aureus [9] = experiment: Antibacterial activity against Staphylococcus aureus ATCC 6538 cultured in MH medium assessed as reduction in bacterial growth incubated for 48 hrs by microbroth dilution method; type: functional; details: ATCC 6538, 48 h
Escherichia coli [10] = experiment: Antibacterial activity against Escherichia coli ATCC 8739 cultured in MH medium assessed as reduction in bacterial growth incubated for 48 hrs by microbroth dilution method; type: functional; details: ATCC 8739, 48 h
Escherichia coli [11] = experiment: Bactericidal activity against Escherichia coli ATCC 8739 cultured in MH medium assessed as reduction in bacterial survival incubated for 48 hrs by microbroth dilution method; type: functional; details: ATCC 8739, 48 h
Staphylococcus aureus [12] = experiment: Antibacterial activity against methicillin resistant Staphylococcus aureus N315 cultured in MH medium assessed as reduction in bacterial growth incubated for 48 hrs by microbroth dilution method; type: functional; details: N315, 48 h
Staphylococcus aureus [13] = experiment: Bactericidal activity against methicillin resistant Staphylococcus aureus 6347 cultured in MH medium assessed as reduction in bacterial survival incubated for 48 hrs by microbroth dilution method; type: functional; details: Staphylococcus aureus, 6347, 48 h
[14] = test system: Staphylococcus epidermidis; experiment: Bactericidal activity against methicillin resistant Staphylococcus epidermidis ATCC 13199 cultured in MH medium assessed as reduction in bacterial survival incubated for 48 hrs by microbroth dilution method; type: functional; details: ATCC 13199, 48 h
Pseudomonas aeruginosa [15] = experiment: Bactericidal activity against Pseudomonas aeruginosa ATCC 9027 cultured in MH medium assessed as reduction in bacterial survival incubated for 48 hrs by microbroth dilution method; type: functional; details: ATCC 9027, 48 h
Staphylococcus aureus [16] = experiment: Bactericidal activity against methicillin resistant Staphylococcus aureus N315 cultured in MH medium assessed as reduction in bacterial survival incubated for 48 hrs by microbroth dilution method; type: functional; details: N315, 48 h
Streptococcus pneumoniae [17] = experiment: Bactericidal activity against Streptococcus pneumoniae cultured in MH medium assessed as reduction in bacterial survival incubated for 48 hrs by microbroth dilution method; type: functional
Serratia marcescens [18] = experiment: Antibacterial activity against Serratia marcescens ATCC 12795 cultured in MH medium assessed as reduction in bacterial growth incubated for 48 hrs by microbroth dilution method; type: functional; details: ATCC 12795, 48 h
[19] = test system: Staphylococcus epidermidis; experiment: Bactericidal activity against Staphylococcus epidermidis ATCC 14990 cultured in MH medium assessed as reduction in bacterial survival incubated for 48 hrs by microbroth dilution method; type: functional; details: ATCC 14990, 48 h
Proteus vulgaris [20] = experiment: Resistance index, ratio of MIC for Proteus vulgaris NCTC 4635 measured after 5 dilution steps to MIC for Proteus vulgaris NCTC 4635 measured after 48 hrs incubation by microbroth dilution method; type: functional
Proteus vulgaris [21] = experiment: Antibacterial activity against Proteus vulgaris NCTC 4635 cultured in MH medium assessed as reduction in bacterial growth incubated for 48 hrs by microbroth dilution method; type: functional; details: NCTC 4635, 48 h
Staphylococcus aureus [22] = experiment: Bactericidal activity against Staphylococcus aureus ATCC 6538 cultured in MH medium assessed as reduction in bacterial survival incubated for 48 hrs by microbroth dilution method; type: functional; details: ATCC 6538, 48 h
Streptococcus pneumoniae [23] = experiment: Antibacterial activity against Streptococcus pneumoniae cultured in MH medium assessed as reduction in bacterial growth incubated for 48 hrs by microbroth dilution method; type: functional
[24] = test system: Staphylococcus epidermidis; experiment: Antibacterial activity against Staphylococcus epidermidis ATCC 14990 cultured in MH medium assessed as reduction in bacterial growth incubated for 48 hrs by microbroth dilution method; type: functional; details: ATCC 14990, 48 h
Pseudomonas aeruginosa [25] = experiment: Antibacterial activity against Pseudomonas aeruginosa ATCC 9027 cultured in MH medium assessed as reduction in bacterial growth incubated for 48 hrs by microbroth dilution method; type: functional; details: ATCC 9027, 48 h
Staphylococcus aureus [26] = experiment: Antibacterial activity against methicillin resistant Staphylococcus aureus 6347 cultured in MH medium assessed as reduction in bacterial growth incubated for 48 hrs by microbroth dilution method; type: functional; details: Staphylococcus aureus, 6347, 48 h
Escherichia coli [27] = experiment: Antibacterial activity against […] Escherichia coli ATCC 8739 assessed as reduction in bacterial growth incubated for 48 hrs in presence of 50 ug/ml […], PAbetaN by microbroth dilution method; type: functional; details: ATCC 8739, 48 h
Escherichia coli [28] = experiment: Bactericidal activity against […] Escherichia coli ATCC 8739 assessed as reduction in bacterial survival incubated for 48 hrs in presence of 50 ug/ml […], PAbetaN by microbroth dilution method; type: functional; details: ATCC 8739, 48 h
Proteus vulgaris [29] = experiment: Antibacterial activity against Proteus vulgaris NCTC 4635 measured after 15 passages by microbroth dilution method; type: functional
Proteus vulgaris [30] = experiment: Resistance index, ratio of MIC for Proteus vulgaris NCTC 4635 measured after 15 passages to MIC for Proteus vulgaris NCTC 4635 measured after 48 hrs incubation by microbroth dilution method; type: functional
[31] = test system: Staphylococcus epidermidis; experiment: Ratio of gatifloxacin resistance index to compound resistance index for methicillin resistant Staphylococcus epidermidis ATCC 13199 by microbroth dilution method; type: functional
HEK293 [32] = experiment: Cytotoxicity against human HEK293 cells assessed as cell viability upto 20 uM incubated for 72 hrs by MTT assay; type: cell-based; details: hek293, 72 h
HEK293 [33] = experiment: Cytotoxicity against human HEK293 cells assessed as changes in cell morphology upto 20 uM incubated for 72 hrs by MTT assay; type: cell-based; details: hek293, 72 h

SMILES	MIC (Bacillus spizizenii [1])	MIC (Enterococcus hirae [2])	MIC [3]	MBC (Bacillus spizizenii [5])	MBC (Serratia marcescens [6])	MBC (Proteus vulgaris [7])	log K [8]	MIC (Staphylococcus aureus [9])	MIC (Escherichia coli [10])	MBC (Escherichia coli [11])	MIC (Staphylococcus aureus [12])	MBC (Staphylococcus aureus [13])	MBC [14]	MBC (Pseudomonas aeruginosa [15])	MBC (Staphylococcus aureus [16])	MBC (Streptococcus pneumoniae [17])	MIC (Serratia marcescens [18])	MBC [19]	MIC (Proteus vulgaris [21])	MBC (Staphylococcus aureus [22])	other results
COc1c(N2CCNC(C)C2)c(F)cc2c(=O)c(C(=O)O)cn(C3CC3)c12 (configuration not stated) [GATIFLOXACIN]	0.032 µg/mL (≈ 0.0852 µM)	8 µg/mL (≈ 21.3 µM)	0.063 µg/mL (≈ 0.168 µM)	0.063 µg/mL (≈ 0.168 µM)	0.5 µg/mL (≈ 1.33 µM)	0.008 µg/mL (≈ 0.0213 µM)	0.101	0.25 µg/mL (≈ 0.666 µM)	0.016 µg/mL (≈ 0.0426 µM)	0.032 µg/mL (≈ 0.0852 µM)	0.125 µg/mL (≈ 0.333 µM)	0.125 µg/mL (≈ 0.333 µM)	0.063 µg/mL (≈ 0.168 µM)	0.25 µg/mL (≈ 0.666 µM)	0.125 µg/mL (≈ 0.333 µM)	256 µg/mL (≈ 682 µM)	0.25 µg/mL (≈ 0.666 µM)	0.25 µg/mL (≈ 0.666 µM)	0.008 µg/mL (≈ 0.0213 µM)	0.25 µg/mL (≈ 0.666 µM)	MBC (Enterococcus hirae [4]): 16 µg/mL (≈ 42.6 µM); Ratio (Proteus vulgaris [20]): 32; MIC (Streptococcus pneumoniae [23]): 1 µg/mL (≈ 2.66 µM); MIC [24]: 0.125 µg/mL (≈ 0.333 µM); MIC (Pseudomonas aeruginosa [25]): 0.25 µg/mL (≈ 0.666 µM); MIC (Staphylococcus aureus [26]): 0.125 µg/mL (≈ 0.333 µM)
COc1c(N2CC[N+]3(CN4C(C)=CC(C)=C(C(=O)O)C4=N3)C(C)C2)c(F)cc2c(=O)c(C(=O)O)cn(C3CC3)c12.[Cl-] (configuration not stated)	2 µg/mL	> 512 µg/mL	4 µg/mL	2 µg/mL	32 µg/mL	0.5 µg/mL	-0.408	8 µg/mL	2 µg/mL	2 µg/mL	8 µg/mL	16 µg/mL	8 µg/mL	256 µg/mL	8 µg/mL	256 µg/mL	32 µg/mL	16 µg/mL	0.5 µg/mL	16 µg/mL	MIC (Escherichia coli [27]): 1 µg/mL; MBC (Escherichia coli [28]): 2 µg/mL; MIC (Proteus vulgaris [29]): 2 µg/mL; Ratio (Proteus vulgaris [30]): 4; Ratio [31]: 2; Activity (HEK293 [32]): Non-Toxic; Activity (HEK293 [33]): Non-Toxic; MIC (Streptococcus pneumoniae [23]): 128 µg/mL; MIC [24]: 8 µg/mL; MIC (Pseudomonas aeruginosa [25]): 32 µg/mL; MIC (Staphylococcus aureus [26]): 8 µg/mL
